# Results taken from patent US10131652B2, “Pyrimidinyloxy benzene derivatives as herbicides” (E. I. DU PONT DE NEMOURS AND COMPANY, priority 2014, dated 2018).
# Where two headings read alike, the source gives them in different places.
# Assays:
# Assay in all cases: Test D pre-/postemergence plant response
# Assay type in all cases: in vivo
# [1] = tested on: Italian ryegrass (Lolium multiflorum); conditions: Lolium multiflorum; for pest or weed control at 31 g/ha: 31 g ai/ha; for pest or weed control at 62 g/ha: 62 g ai/ha; for pest or weed control at 125 g/ha: 125 g ai/ha
# Procedure, shortened: (§1)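 Ratings were visual, 0 = no effect to 100 = complete control, taken against untreated controls after 13 to 15 days in a greenhouse. Chemicals, formulated in non-phytotoxic surfactant-containing solvent, went onto soil (loam/sand) at planting for preemergence, or onto 1- to 4-leaf plants (2–18 cm) for postemergence.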
# [2] = tested on: barnyardgrass (Echinochloa crus-galli); conditions: Echinochloa crus-galli; for pest or weed control at 16 g/ha: 16 g ai/ha; for pest or weed control at 31 g/ha: 31 g ai/ha; for pest or weed control at 62 g/ha: 62 g ai/ha; for pest or weed control at 125 g/ha: 125 g ai/ha
# Procedure, shortened: as §1
# [3] = tested on: blackgrass (Alopecurus myosuroides); conditions: Alopecurus myosuroides; for pest or weed control at 16 g/ha: 16 g ai/ha; for pest or weed control at 31 g/ha: 31 g ai/ha; for pest or weed control at 62 g/ha: 62 g ai/ha; for pest or weed control at 125 g/ha: 125 g ai/ha
# Procedure, shortened: as §1
# corn (Zea mays) = conditions: Zea mays; for Corn plant response rating (crop injury, 0 = no effect, 100 = complete kill) at 62 g/ha: 62 g ai/ha
# Procedure, shortened: as §1
# [4] = tested on: galium (catchweed bedstraw, Galium aparine); conditions: Galium; for pest or weed control at 31 g/ha: 31 g ai/ha; for pest or weed control at 62 g/ha: 62 g ai/ha; for pest or weed control at 125 g/ha: 125 g ai/ha
# Procedure, shortened: as §1
# [5] = tested on: giant foxtail (Setaria faberii); conditions: Setaria faberi; for pest or weed control at 16 g/ha: 16 g ai/ha; for pest or weed control at 31 g/ha: 31 g ai/ha; for pest or weed control at 62 g/ha: 62 g ai/ha; for pest or weed control at 125 g/ha: 125 g ai/ha
# Procedure, shortened: as §1
# [6] = tested on: johnsongrass (Sorghum halepense); conditions: Sorghum halepense; for pest or weed control at 31 g/ha: 31 g ai/ha; for pest or weed control at 62 g/ha: 62 g ai/ha; for pest or weed control at 125 g/ha: 125 g ai/ha
# Procedure, shortened: as §1
# [7] = tested on: lambsquarters (Chenopodium album); conditions: Chenopodium album; for pest or weed control at 31 g/ha: 31 g ai/ha; for pest or weed control at 62 g/ha: 62 g ai/ha; for pest or weed control at 125 g/ha: 125 g ai/ha
# Procedure, shortened: as §1
# [8] = tested on: large (Lg) crabgrass (Digitaria sanguinalis); conditions: Digitaria sanguinalis; for pest or weed control at 125 g/ha: 125 g ai/ha
# Procedure, shortened: as §1
# [9] = post-emergence, Postemergence, scale 0 to 100, 0 no effect, 100 complete control, read-out: Plant response rating, Ryegrass, Italian
# [10] = pre-emergence, Preemergence, scale 0 to 100 (0 no effect, 100 complete control), read-out: Plant response rating, Ryegrass, Italian
# [11] = post-emergence, Postemergence, scale 0 to 100 (0 no effect, 100 complete control), read-out: Barnyardgrass plant response rating
# [12] = post-emergence, Postemergence, scale 0 to 100, 0 no effect, 100 complete control, read-out: Plant response rating, Barnyardgrass
# [13] = pre-emergence, Preemergence, scale 0 to 100 (0 no effect, 100 complete control), read-out: Plant response rating, Barnyardgrass
# [14] = post-emergence, Postemergence, scale 0 to 100 (0 no effect, 100 complete control), read-out: Blackgrass plant response rating
# [15] = post-emergence, Postemergence, scale 0 to 100, 0 no effect, 100 complete control, read-out: Plant response rating, Blackgrass
# [16] = pre-emergence, Preemergence, scale 0 to 100 (0 no effect, 100 complete control), read-out: Plant response rating, Blackgrass
# [17] = post-emergence, Postemergence, scale 0 to 100, 0 no effect, 100 complete control, read-out: Plant response rating, Galium
# [18] = pre-emergence, Preemergence, scale 0 to 100 (0 no effect, 100 complete control), read-out: Plant response rating, Galium
# [19] = post-emergence, Postemergence, scale 0 to 100 (0 no effect, 100 complete control), read-out: Foxtail, Giant plant response rating
# [20] = post-emergence, Postemergence, scale 0 to 100, 0 no effect, 100 complete control, read-out: Plant response rating, Foxtail, Giant
# [21] = pre-emergence, Preemergence, scale 0 to 100 (0 no effect, 100 complete control), read-out: Plant response rating, Foxtail, Giant
# [22] = post-emergence, Postemergence, scale 0 to 100, 0 no effect, 100 complete control, read-out: Plant response rating, Johnsongrass
# [23] = pre-emergence, Preemergence, scale 0 to 100 (0 no effect, 100 complete control), read-out: Plant response rating, Johnsongrass
# [24] = post-emergence, Postemergence, scale 0 to 100, 0 no effect, 100 complete control, read-out: Plant response rating, Lambsquarters
# [25] = pre-emergence, Preemergence, scale 0 to 100 (0 no effect, 100 complete control), read-out: Plant response rating, Lambsquarters
structure (smiles),measurement,setting,value
"Fc1cccc(Oc2ncc(Cl)cn2)c1-c1cc(C(F)(F)F)on1 [Compound 168, 5-chloro-2-[2-[5-(trifluoromethyl)-3-isoxazolyl]-3-fluorophenoxy]pyrimidine]",pest or weed control at 31 g/ha,"[1]; post-emergence, Postemergence, scale 0 to 100 (0 no effect, 100 complete control), read-out: Ryegrass, Italian plant response rating",5%
same,pest or weed control at 62 g/ha,[1]; [9],5%
same,pest or weed control at 125 g/ha,[1]; [9],15%
same,pest or weed control at 125 g/ha,"[1]; pre-emergence, Preemergence, read-out: Plant response rating (scale 0 to 100), Ryegrass, Italian",95%
same,pest or weed control at 16 g/ha,"[1]; pre-emergence, Preemergence, 16 g ai/ha, scale 0 to 100 (0 no effect, 100 complete control), read-out: Plant response rating, Ryegrass, Italian",70%
same,pest or weed control at 31 g/ha,[1]; [10],95%
same,pest or weed control at 62 g/ha,[1]; [10],95%
same,pest or weed control at 16 g/ha,[2]; [11],5%
same,pest or weed control at 31 g/ha,[2]; [11],5%
same,pest or weed control at 62 g/ha,[2]; [12],10%
same,pest or weed control at 125 g/ha,[2]; [12],75%
same,pest or weed control at 125 g/ha,"[2]; pre-emergence, Preemergence, read-out: Plant response rating (scale 0 to 100), Barnyardgrass",100%
same,pest or weed control at 16 g/ha,[2]; [13],35%
same,pest or weed control at 31 g/ha,[2]; [13],75%
same,pest or weed control at 62 g/ha,[2]; [13],100%
same,pest or weed control at 16 g/ha,[3]; [14],10%
same,pest or weed control at 31 g/ha,[3]; [14],15%
same,pest or weed control at 62 g/ha,[3]; [15],15%
same,pest or weed control at 125 g/ha,[3]; [15],20%
same,pest or weed control at 125 g/ha,"[3]; pre-emergence, Preemergence, read-out: Plant response rating (scale 0 to 100), Blackgrass",90%
same,pest or weed control at 16 g/ha,[3]; [16],85%
same,pest or weed control at 31 g/ha,[3]; [16],90%
same,pest or weed control at 62 g/ha,[3]; [16],90%
same,plant injury at 16 g/ha,"corn (Zea mays); post-emergence, Postemergence, 16 g ai/ha, scale 0 to 100 (0 no effect, 100 complete control), read-out: Corn plant response rating",5%
same,plant injury at 31 g/ha,"corn (Zea mays); post-emergence, Postemergence, 31 g ai/ha, scale 0 to 100 (0 no effect, 100 complete control), read-out: Corn plant response rating",5%
same,"Corn plant response rating (crop injury, 0 = no effect, 100 = complete kill) at 62 g/ha","corn (Zea mays); post-emergence, Postemergence, scale 0 to 100, 0 no effect, 100 complete control",10%
same,"Corn plant response rating (crop injury, 0 = no effect, 100 = complete kill) at 125 g/ha","corn (Zea mays); post-emergence, Postemergence, 125 g ai/ha, scale 0 to 100, 0 no effect, 100 complete control",20%
same,plant injury at 125 g/ha,"corn (Zea mays); pre-emergence, Preemergence, 125 g ai/ha, read-out: Plant response rating (scale 0 to 100), Corn",55%
same,"Corn plant response rating (crop injury, 0 = no effect, 100 = complete kill) at 16 g/ha","corn (Zea mays); pre-emergence, Preemergence, 16 g ai/ha, scale 0 to 100 (0 no effect, 100 complete control)",0%
same,"Corn plant response rating (crop injury, 0 = no effect, 100 = complete kill) at 31 g/ha","corn (Zea mays); pre-emergence, Preemergence, 31 g ai/ha, scale 0 to 100 (0 no effect, 100 complete control)",15%
same,"Corn plant response rating (crop injury, 0 = no effect, 100 = complete kill) at 62 g/ha","corn (Zea mays); pre-emergence, Preemergence, scale 0 to 100 (0 no effect, 100 complete control)",25%
same,pest or weed control at 31 g/ha,"[4]; post-emergence, Postemergence, scale 0 to 100 (0 no effect, 100 complete control), read-out: Galium plant response rating",95%
same,pest or weed control at 62 g/ha,[4]; [17],95%
same,pest or weed control at 125 g/ha,[4]; [17],100%
same,pest or weed control at 125 g/ha,"[4]; pre-emergence, Preemergence, read-out: Plant response rating (scale 0 to 100), Galium",100%
same,pest or weed control at 16 g/ha,"[4]; pre-emergence, Preemergence, 16 g ai/ha, scale 0 to 100 (0 no effect, 100 complete control), read-out: Plant response rating, Galium",100%
same,pest or weed control at 31 g/ha,[4]; [18],100%
same,pest or weed control at 62 g/ha,[4]; [18],100%
same,pest or weed control at 16 g/ha,[5]; [19],35%
same,pest or weed control at 31 g/ha,[5]; [19],35%
same,pest or weed control at 62 g/ha,[5]; [20],40%
same,pest or weed control at 125 g/ha,[5]; [20],60%
same,pest or weed control at 125 g/ha,"[5]; pre-emergence, Preemergence, read-out: Plant response rating (scale 0 to 100), Foxtail, Giant",100%
same,pest or weed control at 16 g/ha,[5]; [21],100%
same,pest or weed control at 31 g/ha,[5]; [21],100%
same,pest or weed control at 62 g/ha,[5]; [21],100%
same,pest or weed control at 31 g/ha,"[6]; post-emergence, Postemergence, scale 0 to 100 (0 no effect, 100 complete control), read-out: Johnsongrass plant response rating",5%
same,pest or weed control at 62 g/ha,[6]; [22],5%
same,pest or weed control at 125 g/ha,[6]; [22],20%
same,pest or weed control at 125 g/ha,"[6]; pre-emergence, Preemergence, read-out: Plant response rating (scale 0 to 100), Johnsongrass",100%
same,pest or weed control at 16 g/ha,"[6]; pre-emergence, Preemergence, 16 g ai/ha, scale 0 to 100 (0 no effect, 100 complete control), read-out: Plant response rating, Johnsongrass",35%
same,pest or weed control at 31 g/ha,[6]; [23],95%
same,pest or weed control at 62 g/ha,[6]; [23],85%
same,pest or weed control at 31 g/ha,"[7]; post-emergence, Postemergence, scale 0 to 100 (0 no effect, 100 complete control), read-out: Lambsquarters plant response rating",85%
same,pest or weed control at 62 g/ha,[7]; [24],85%
same,pest or weed control at 125 g/ha,[7]; [24],90%
same,pest or weed control at 125 g/ha,"[7]; pre-emergence, Preemergence, read-out: Plant response rating (scale 0 to 100), Lambsquarters",98%
same,pest or weed control at 16 g/ha,"[7]; pre-emergence, Preemergence, 16 g ai/ha, scale 0 to 100 (0 no effect, 100 complete control), read-out: Plant response rating, Lambsquarters",90%
same,pest or weed control at 31 g/ha,[7]; [25],100%
same,pest or weed control at 62 g/ha,[7]; [25],100%
same,pest or weed control at 16 g/ha,"[8]; post-emergence, Postemergence, 16 g ai/ha, scale 0 to 100 (0 no effect, 100 complete control), read-out: Crabgrass, Large plant response rating",5%
same,pest or weed control at 31 g/ha,"[8]; post-emergence, Postemergence, 31 g ai/ha, scale 0 to 100 (0 no effect, 100 complete control), read-out: Crabgrass, Large plant response rating",5%
same,pest or weed control at 62 g/ha,"[8]; post-emergence, Postemergence, 62 g ai/ha, scale 0 to 100, 0 no effect, 100 complete control, read-out: Plant response rating, Crabgrass, Large",15%
same,pest or weed control at 125 g/ha,"[8]; post-emergence, Postemergence, scale 0 to 100, 0 no effect, 100 complete control, read-out: Plant response rating, Crabgrass, Large",40%
same,pest or weed control at 125 g/ha,"[8]; pre-emergence, Preemergence, read-out: Plant response rating (scale 0 to 100), Crabgrass, Large",100%
